Test results published in patent US12643887B2, “Heterocyclic derivatives with cardiomyocyte proliferation activity for treatment of heart diseases” (Tongji University, priority 2019, dated 2026).
Read-outs that look alike come from different tables or passages of the source.

Tests used:
human CLK1 = target: T1, human CLK1 (Homo sapiens, UniProt P49759); experiment: CLK1 enzyme assay (ADP-Glo); format: biochemical
T1 construct: Recombinant human CLK1 (129-end); GST (N); purchased SignalChem C57-11G; host or cells: Sf9 insect cells
Summary of the method: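 GST-tagged CLK1 (129-end, Sf9-expressed) at 16 nM was preincubated with compound 30 min at 25 °C in 40 mM Tris pH 7.5, 20 mM MgCl2, 0.1 mg/ml BSA, 50 μM DTT. Reaction with 2 μM substrate and 10 μM ATP ran 60 min at 25 °C. ADP-Glo luminescence gave IC50 by four-parameter fit.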

human GSK3 beta = target: T2, human GSK3 beta (Homo sapiens, UniProt P49841); experiment: GSK3 beta enzyme assay (ADP-Glo); format: biochemical; settings: ATP 25 μM, read-out: GSK3b IC50
T2 construct: Recombinant full-length human GSK3 beta (expressed in Sf9 insect cells with an N-terminal His tag); His (N); purchased SignalChem G09-10H; host or cells: Sf9 insect cells
Summary of the method: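 Full-length His-tagged human GSK3β from Sf9 cells (4 nM) preincubated 30 min at 25 °C with inhibitor in Tris pH 7.5/MgCl2/BSA/DTT, then reacted 60 min at 25 °C with 13 μM substrate peptide and 25 μM ATP. ADP measured by ADP-Glo luminescence; IC50 from four-parameter logistic fit of % inhibition.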

[1] = ADP-Glo, ATP 10 μM, read-out: CLK1 IC50

T2 sequence (P49841 whole entry): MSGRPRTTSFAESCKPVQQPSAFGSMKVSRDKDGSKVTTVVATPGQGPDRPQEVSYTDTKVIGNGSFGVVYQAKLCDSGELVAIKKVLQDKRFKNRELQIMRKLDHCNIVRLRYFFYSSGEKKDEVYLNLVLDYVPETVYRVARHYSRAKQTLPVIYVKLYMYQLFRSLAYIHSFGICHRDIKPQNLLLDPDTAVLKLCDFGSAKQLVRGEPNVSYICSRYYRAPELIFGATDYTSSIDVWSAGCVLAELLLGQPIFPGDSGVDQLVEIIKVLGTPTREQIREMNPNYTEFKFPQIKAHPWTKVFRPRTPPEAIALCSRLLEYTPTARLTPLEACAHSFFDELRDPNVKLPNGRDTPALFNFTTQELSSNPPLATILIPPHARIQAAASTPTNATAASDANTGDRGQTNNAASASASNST
T1 sequence (P49759 129-484 limits assumed): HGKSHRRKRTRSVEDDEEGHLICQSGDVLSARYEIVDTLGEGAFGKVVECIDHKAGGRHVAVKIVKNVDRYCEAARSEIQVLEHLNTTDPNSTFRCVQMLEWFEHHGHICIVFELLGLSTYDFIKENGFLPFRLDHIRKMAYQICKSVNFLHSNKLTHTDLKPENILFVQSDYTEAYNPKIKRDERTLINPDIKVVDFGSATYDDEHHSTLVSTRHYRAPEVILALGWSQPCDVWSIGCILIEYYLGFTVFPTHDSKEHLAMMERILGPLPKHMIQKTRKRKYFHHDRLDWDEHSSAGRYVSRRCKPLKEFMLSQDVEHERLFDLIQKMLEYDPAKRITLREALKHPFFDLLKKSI

| IC50 (human CLK1; [1]) | IC50 (human GSK3 beta) | Structure (SMILES) | IC50 (human CLK1) |
| --- | --- | --- | --- |
| 0.1 to 1 µM | > 10 µM | O=C1NC(Nc2ccc3sccc3c2)=N/C1=C\c1ccc2ncsc2c1 [Example 101, (Z)-2-(benzo[b]thiophen-5-ylamino)-5-(benzo[d]thiazol-6-ylmethylene)-3,5-dihydro-4H-imidazol-4-one] |  |
| < 0.1 µM | 0.1 to 1 µM | Cn1cnc2ccc(NC3=N/C(=C\c4ccc5ncsc5c4)C(=O)N3)cc21 [Example 93, (Z)-5-(benzo[d]thiazol-6-ylmethylene)-2-((1-methyl-1H-benzo[d]imidazol-6-yl)amino)-3,5-dihydro-4H-imidazol-4-one] |  |
| < 0.1 µM | > 10 µM | O=C1NC(N(Cc2ccccc2)c2ccc3ncsc3c2)=N/C1=C\c1ccc2ncsc2c1 [Example 99, (Z)-2-(benzo[d]thiazol-6-yl(benzyl)amino)-5-(benzo[d]thiazol-6-ylmethylene)-3,5-dihydro-4H-imidazol-4-one] |  |
| < 0.1 µM | 0.1 to 1 µM | O=C1NC(Nc2ccc3ncsc3c2)=N/C1=C\c1cncs1 [Example 92, (Z)-2-(benzo[d]thiazol-6-ylamino)-5-(thiazol-5-ylmethylene)-3,5-dihydro-4H-imidazol-4-one] |  |
| 1 to 10 µM | 0.1 to 1 µM | CC(C)Nc1nc2ccc(NC3=N/C(=C\c4ccc5ncsc5c4)C(=O)N3)cc2s1 [Example 100, (Z)-5-(benzo[d]thiazol-6-ylmethylene)-2-((2-(isopropylamino)benzo[d]thiazol-6-yl)amino)-3,5-dihydro-4H-imidazol-4-one] |  |
| > 10 µM | 1 to 10 µM | O=C1NC(=S)N/C1=C\c1ccc2sccc2c1 [Example 96, (Z)-5-(benzo[b]thiophen-5-ylmethylene)-2-thioxoimidazolidin-4-one] |  |
| > 10 µM | > 10 µM | O=C1NC(Nc2ccc3ncsc3c2)=N/C1=C\c1ccc2cn[nH]c2c1 [Example 95, (Z)-5-((1H-indazol-6-yl)methylene)-2-(benzo[d]thiazol-6-ylamino)-3,5-dihydro-4H-imidazol-4-one] |  |
| 0.1 to 1 µM | 1 to 10 µM | O=C1NC(Nc2ccc3nc[nH]c3c2)=N/C1=C\c1ccc2ncsc2c1 [Example 97, (Z)-2-((1H-benzo[d]imidazol-6-yl)amino)-5-(benzo[d]thiazol-6-ylmethylene)-3,5-dihydro-4H-imidazol-4-one] |  |
| > 10 µM | > 10 µM | O=C1NC(Nc2ccc3ncsc3c2)=N/C1=C\c1ccc2nccnc2c1 [Example 94, (Z)-2-(benzo[d]thiazol-6-ylamino)-5-(quinoxalin-6-ylmethylene)-3,5-dihydro-4H-imidazol-4-one] |  |

The remaining lines, values behind:

| Structure (SMILES) | IC50 (human CLK1; [1]) | IC50 (human GSK3 beta) | IC50 (human CLK1) |
| --- | --- | --- | --- |
| CC(=O)N(C1=N/C(=C\c2ccc3c(c2)OCO3)C(=O)N1)c1ccccc1 [Example 5, (Z)—N-(4-(benzo[d][1,3]dioxol-5-ylmethylene)-5-oxo-4,5-dihydro-1H-imidazol-2-yl)-N-phenylacetamide] |  |  | 0.1 to 1 µM |
| Cc1nc2ccc(NC3=N/C(=C\c4ccc5ncsc5c4)C(=O)N3)cc2s1 [Example 90, (Z)-5-(benzo[d]thiazol-6-ylmethylene)-2-((2-methylbenzo[d]thiazol-6-yl)amino)-3,5-dihydro-4H-imidazol-4-one] | < 0.1 µM | > 10 µM |  |
| CN(C1=N/C(=C\c2ccc3ncsc3c2)C(=O)N1)c1ccc2c(c1)ncn2C [Example 86, (Z)-5-(benzo[d]thiazol-6-ylmethylene)-2-(methyl(1-methyl-1H-benzo[d]imidazol-5-yl)amino)-3,5-dihydro-4H-imidazol-4-one] | 1 to 10 µM | 1 to 10 µM |  |
| CC(=O)N(C1=N/C(=C\c2ccc3ncsc3c2)C(=O)N1)c1ccc2ncsc2c1 [Example 91, (Z)—N-(benzo[d]thiazol-6-yl)-N-(4-(benzo[d]thiazol-6-ylmethylene)-5-oxo-4,5-dihydro-1H-imidazol-2-yl)acetamide] | < 0.1 µM | > 10 µM |  |
| CN(C1=N/C(=C\c2ccc3[nH]ccc3c2)C(=O)N1)c1ccc2ncsc2c1 [Example 87, (Z)-5-((1H-indol-5-yl)methylene)-2-(benzo[d]thiazol-6-yl(methyl)amino)-3,5-dihydro-4H-imidazol-4-one] | > 10 µM | > 10 µM |  |
| Nc1ccc(NC2=N/C(=C\c3ccc4ncsc4c3)C(=O)N2)cc1 [Example 98, (Z)-2-((4-aminophenyl)amino)-5-(benzo[d]thiazol-6-ylmethylene)-3,5-dihydro-4H-imidazol-4-one] | < 0.1 µM | 0.1 to 1 µM |  |
| COCCN(C1=N/C(=C\c2ccc3ncsc3c2)C(=O)N1)c1ccc2ncsc2c1 [Example 89, (Z)-2-(benzo[d]thiazol-6-yl(2-methoxyethyl)amino)-5-(benzo[d]thiazol-6-ylmethylene)-3,5-dihydro-4H-imidazol-4-one] | < 0.1 µM | 1 to 10 µM |  |
| CN(C1=N/C(=C\c2ccc3ncccc3c2)C(=O)N1)c1ccc2ncsc2c1 [Example 85, (Z)-2-(benzo[d]thiazol-6-yl(methyl)amino)-5-(quinolin-6-ylmethylene)-3,5-dihydro-4H-imidazol-4-one] | 0.1 to 1 µM | 1 to 10 µM |  |
| CCN(C1=N/C(=C\c2ccc3c(c2)OCO3)C(=O)N1)c1ccccc1 [Example 4, (Z)-5-(benzo[d][1,3]dioxol-5-ylmethylene)-2-(ethyl(phenyl)amino)-3,5-dihydro-4H-imidazol-4-one] | 0.1 to 1 µM |  |  |
| CN1C(=O)/C(=C/c2ccc3ncsc3c2)N=C1Nc1ccc2ncsc2c1 [Example 88, (Z)-2-(benzo[d]thiazol-6-ylamino)-5-(benzo[d]thiazol-6-ylmethylene)-3-methyl-3,5-dihydro-4H-imidazol-4-one] | < 0.1 µM | > 10 µM |  |
